These are literature values, as cited in article PMC11930985 (Nature Communications, 2025).

Where only a bound is given, the exact number is not on record here.

The target of one data set is Yes. Also noted: method as in Investigator's Brochure (IB) version 5.0. The following applies: ref Investigator's Brochure (IB) version 5.0; cited from earlier work.
Another data set concerns MD V 4-11 xenograft. Further details: method as in Investigator's Brochure (IB) version 5.0. To be noted: ref Investigator's Brochure (IB) version 5.0, cited from earlier work.
In another data set the test system is OCI-AML5 xenograft. Further details: method as in Investigator's Brochure (IB) version 5.0. The following applies: ref Investigator's Brochure (IB) version 5.0; cited from earlier work.
Details of data set [1]: method as in Protocol BGBC001. To be noted: ref Protocol BGBC001, cited from earlier work.

Take `Nc1nc(Nc2ccc3c(c2)CC[C@@H](N2CCCC2)CC3)nn1-c1cc2c(nn1)-c1ccccc1CCC2` [Bemcentinib]: the Kd (as a rule, the free concentration of one partner at which half of the binding sites on the other are occupied at equilibrium, for simple one-to-one binding) on Yes is 810 nM. Also, the “Reduction in tumor burden” value in the data set with MD V 4-11 xenograft (oral treatment) is “dose-dependent”. The “Axl and ERK phosphorylation levels” value with MD V 4-11 xenograft was “dose-dependent reduction”. Besides, in the data set with OCI-AML5 xenograft, the Tumor growth result is “inhibited”. Besides, the t1/2 in data set [1] (single oral dose, healthy subjects) is greater than 24 h. Besides, in data set [1] (whole milk and buttered toast), the “Estimated increase in exposure with food in some subjects” value is listed as “up to two”.
